According to ChEMBL document CHEMBL4396864, “Small-Molecule Modulators of the Hypoxia-Inducible Factor Pathway: Development and Therapeutic Applications” (J Med Chem, 2019):

Key:
[1] = biological target: T1, CREB-binding protein/Histone acetyltransferase p300 (Homo sapiens, UniProt Q09472+Q92793); assay: Inhibition of GST-tagged p300 (unknown origin)/CBP (unknown origin) protein-protein interaction; assay type: protein assay
[2] = biological target: Hypoxia-inducible factor 1-alpha (Homo sapiens, UniProt Q16665); assay: Inhibition of HIF-1alpha in human U373 cells; assay type: cell-based, U-373MG ATCC
Hypoxia-inducible factor 1-alpha, sequence (Q16665 whole entry): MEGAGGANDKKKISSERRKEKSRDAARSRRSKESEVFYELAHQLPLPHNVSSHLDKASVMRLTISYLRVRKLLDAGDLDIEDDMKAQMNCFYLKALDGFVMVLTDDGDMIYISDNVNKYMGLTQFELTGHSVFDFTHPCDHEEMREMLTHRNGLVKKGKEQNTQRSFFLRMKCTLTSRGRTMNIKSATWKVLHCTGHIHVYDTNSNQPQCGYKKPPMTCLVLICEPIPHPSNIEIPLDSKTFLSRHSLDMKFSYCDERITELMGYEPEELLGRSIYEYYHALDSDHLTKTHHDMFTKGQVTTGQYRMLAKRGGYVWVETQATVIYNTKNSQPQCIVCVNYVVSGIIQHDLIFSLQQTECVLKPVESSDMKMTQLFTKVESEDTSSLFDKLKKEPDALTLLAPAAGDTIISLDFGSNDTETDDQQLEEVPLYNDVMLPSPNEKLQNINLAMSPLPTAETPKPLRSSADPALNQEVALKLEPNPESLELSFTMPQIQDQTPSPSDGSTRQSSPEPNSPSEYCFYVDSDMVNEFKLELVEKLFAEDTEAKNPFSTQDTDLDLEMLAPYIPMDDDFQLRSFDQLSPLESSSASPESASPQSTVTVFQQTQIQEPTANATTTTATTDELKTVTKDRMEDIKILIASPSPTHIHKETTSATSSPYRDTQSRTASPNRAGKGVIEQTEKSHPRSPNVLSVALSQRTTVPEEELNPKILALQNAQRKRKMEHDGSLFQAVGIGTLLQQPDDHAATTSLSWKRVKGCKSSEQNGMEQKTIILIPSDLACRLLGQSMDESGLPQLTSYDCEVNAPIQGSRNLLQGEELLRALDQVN

[3] = biological target: Histone acetyltransferase p300 (Homo sapiens, UniProt Q09472); assay: Binding affinity to p300 (unknown origin)
Histone acetyltransferase p300, sequence (Q09472 whole entry): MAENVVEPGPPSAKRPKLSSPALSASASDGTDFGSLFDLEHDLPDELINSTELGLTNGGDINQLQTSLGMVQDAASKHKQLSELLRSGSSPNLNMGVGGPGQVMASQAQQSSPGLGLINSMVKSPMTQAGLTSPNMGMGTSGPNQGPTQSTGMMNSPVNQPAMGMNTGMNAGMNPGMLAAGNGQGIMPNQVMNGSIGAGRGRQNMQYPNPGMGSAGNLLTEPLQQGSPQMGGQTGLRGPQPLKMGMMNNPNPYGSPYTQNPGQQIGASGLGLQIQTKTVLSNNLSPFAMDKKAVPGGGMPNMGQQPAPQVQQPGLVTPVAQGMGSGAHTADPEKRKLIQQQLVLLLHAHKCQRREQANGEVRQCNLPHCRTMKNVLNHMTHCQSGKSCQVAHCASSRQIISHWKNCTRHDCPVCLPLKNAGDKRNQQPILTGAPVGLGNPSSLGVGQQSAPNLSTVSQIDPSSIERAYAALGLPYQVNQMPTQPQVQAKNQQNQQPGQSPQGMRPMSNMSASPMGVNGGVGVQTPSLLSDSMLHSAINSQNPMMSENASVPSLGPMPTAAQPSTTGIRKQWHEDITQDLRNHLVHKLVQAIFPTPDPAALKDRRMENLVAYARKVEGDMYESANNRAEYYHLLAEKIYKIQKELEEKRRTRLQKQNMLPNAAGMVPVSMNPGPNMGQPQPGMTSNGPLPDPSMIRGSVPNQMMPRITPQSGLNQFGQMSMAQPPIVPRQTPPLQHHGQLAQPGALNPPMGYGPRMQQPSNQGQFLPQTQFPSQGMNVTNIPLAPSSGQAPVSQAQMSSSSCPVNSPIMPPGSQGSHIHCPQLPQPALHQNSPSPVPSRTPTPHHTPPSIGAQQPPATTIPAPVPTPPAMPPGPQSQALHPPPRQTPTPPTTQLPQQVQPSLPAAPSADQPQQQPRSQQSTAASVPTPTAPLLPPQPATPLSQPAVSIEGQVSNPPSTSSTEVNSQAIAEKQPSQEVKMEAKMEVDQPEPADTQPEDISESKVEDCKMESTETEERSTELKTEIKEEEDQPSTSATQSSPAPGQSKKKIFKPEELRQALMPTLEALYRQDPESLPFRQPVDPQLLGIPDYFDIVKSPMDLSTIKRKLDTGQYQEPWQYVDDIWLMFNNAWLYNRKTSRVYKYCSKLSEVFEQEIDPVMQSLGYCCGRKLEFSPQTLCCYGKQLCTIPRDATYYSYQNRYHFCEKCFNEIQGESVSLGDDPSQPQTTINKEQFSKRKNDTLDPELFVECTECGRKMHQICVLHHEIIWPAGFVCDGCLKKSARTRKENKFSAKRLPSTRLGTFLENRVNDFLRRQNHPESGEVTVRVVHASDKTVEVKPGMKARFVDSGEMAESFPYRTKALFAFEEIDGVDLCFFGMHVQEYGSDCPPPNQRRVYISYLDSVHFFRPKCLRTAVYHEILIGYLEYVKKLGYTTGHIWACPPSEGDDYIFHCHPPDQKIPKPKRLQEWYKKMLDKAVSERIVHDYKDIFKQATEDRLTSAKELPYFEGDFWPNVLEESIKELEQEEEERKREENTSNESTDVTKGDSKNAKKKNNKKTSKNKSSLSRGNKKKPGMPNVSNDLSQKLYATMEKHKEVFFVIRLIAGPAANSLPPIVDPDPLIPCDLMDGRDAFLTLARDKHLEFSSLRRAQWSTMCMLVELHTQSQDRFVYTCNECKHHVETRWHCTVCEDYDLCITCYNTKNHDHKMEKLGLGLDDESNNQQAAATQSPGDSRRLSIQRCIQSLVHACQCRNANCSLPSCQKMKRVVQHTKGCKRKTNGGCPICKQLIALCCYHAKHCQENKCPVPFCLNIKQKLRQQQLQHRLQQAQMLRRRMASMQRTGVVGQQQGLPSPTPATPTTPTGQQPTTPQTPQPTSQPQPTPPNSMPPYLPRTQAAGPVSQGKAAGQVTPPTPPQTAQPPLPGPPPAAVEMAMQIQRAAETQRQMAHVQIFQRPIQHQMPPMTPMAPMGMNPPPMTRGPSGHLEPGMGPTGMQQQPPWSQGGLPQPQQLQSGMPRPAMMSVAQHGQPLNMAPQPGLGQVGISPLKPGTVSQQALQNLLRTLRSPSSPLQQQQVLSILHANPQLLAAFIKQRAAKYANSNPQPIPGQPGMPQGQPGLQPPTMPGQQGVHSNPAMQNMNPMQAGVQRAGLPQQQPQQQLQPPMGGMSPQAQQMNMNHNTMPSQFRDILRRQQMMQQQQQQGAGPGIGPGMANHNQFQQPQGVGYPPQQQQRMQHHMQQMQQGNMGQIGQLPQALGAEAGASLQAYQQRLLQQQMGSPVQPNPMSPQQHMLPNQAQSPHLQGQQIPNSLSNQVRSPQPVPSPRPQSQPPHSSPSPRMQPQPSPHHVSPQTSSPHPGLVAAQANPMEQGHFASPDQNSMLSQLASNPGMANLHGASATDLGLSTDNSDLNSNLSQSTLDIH

[4] = biological target: T1, CREB-binding protein/Histone acetyltransferase p300; assay: Inhibition of GST-tagged p300 (unknown origin)/CBP (unknown origin) protein-protein interaction by fluorescence polarization assay
[5] = system: Hep 3B2; assay: Downregulation of VEGF protein level in human Hep3B cells after 8 hrs by ELISA; assay type: functional, cell-based

## CC(C)Cc1cc(CNC(=O)N2CCN(CC(=O)Nc3ccccc3Cl)CC2)nn1-c1ccccc1.Cl
[1]
  IC50: 107000 nM

## COc1cc([C@@H]2c3cc4c(cc3[C@@H](Nc3ccc([N+](=O)[O-])cc3)[C@H]3COC(=O)[C@H]23)OCO4)cc(OC)c1O
[2]
  IC50: 1 to 5 nM

## CC(C)C[C@H](NC(=O)[C@H](C)NC(=O)[C@H](CCCNC(=N)N)NC(=O)[C@H](C)N1CC/C=C\CC(=O)N[C@@H](CCC(=O)O)C(=O)N[C@@H](CC(C)C)C1=O)C(=O)N[C@@H](CC(=O)O)C(=O)N[C@@H](CCC(N)=O)C(N)=O
[3]
  Kd: 690 nM

## CN1C(=O)[C@]2(Cc3ccc(CCc4ccc(C[C@@]56SS[C@@](CO)(C(=O)N5C)N(C)C6=O)cc4)cc3)SS[C@@]1(CO)C(=O)N2C
[4]
  IC50: 600 nM

## CN1C(=O)[C@]2(Cc3ccc(C[C@@]45SS[C@@](CO)(C(=O)N4C)N(C)C5=O)cc3)SS[C@@]1(CO)C(=O)N2C
[4]
  IC50: 1500 nM

## CN1C(=O)[C@@]23C[C@]4([C@]56C[C@@]78SS[C@@](CO)(C(=O)N7[C@H]5Nc5ccccc56)N(C)C8=O)c5ccccc5N[C@@H]4N2C(=O)[C@]1(CO)SS3 [CHAETOCIN]
[5]
  IC50: 100 nM
